One assay addresses LRRK2 (G2019S) (Homo sapiens, UniProt Q5S007, G2019S). In words: Off-target kinase panel, ADAPTA: LRRK2 (G2019S). The settings on record: read-out: Estimated IC50 (uM) LRRK2 (G2019S). In kind it is biochemical. The text has this:
The activity data was obtained in a panel of 265 and 264 for compounds 1-1 and CC-1, respectively, using the ZLYTE and ADAPTA assay methods indicated in the table below.
The Adapta universal kinase assay is a homogenous, fluorescent based immunoassay for the detection of ADP. In contrast to ATP depletion assays, the Adapta assay is highly sensitive to ADP formation such that a majority of the signal change occurs in the first 10-20% conversion of ATP to ADP. This makes the Adapta universal kinase assay well suited for use with low activity kinases.
The principle of the Adapta universal kinase assay is outlined below. The assay itself can be divided into two phases: a kinase reaction phase, and an ADP detection phase. In the kinase reaction phase, all components required for the kinase reaction are added to the well, and the reaction is allowed to incubate for 60 minutes. After the reaction, a detection solution consisting of a europium labeled anti-ADP antibody, an Alexa Fluor 647 labeled ADP tracer, and EDTA (to stop the kinase reaction) is added to the assay well. […]
ADP formation is determined by calculating the emission ratio from the assay well. The emission ratio is calculated by dividing the intensity of the tracer (acceptor) emission by the intensity of the Eu (donor) emission at 615 nm as shown in the equation below. […]
12. Read on fluorescence plate reader and analyze the data.

The target of the next assay is IDO1 (Homo sapiens, UniProt P14902). In words: IDO1 Human Whole Blood Assay (D). The note with it: LPS and IFNγ, 18 h, read-out: IDO WB IC50, nM (D). More on the design: from tissue; host or cells: human whole blood from healthy donors, stimulated with LPS and IFNγ. The assay is classed as cell-based. The protocol: Compounds to be tested were serially diluted in ten 3-fold steps in DMSO starting from 10 mM. 3 μL of compound dilutions or DMSO alone were then dispensed from the dilution plate into a polypropylene 96-well assay plate containing 97 μL of RPMI using an Echo 555 acoustic liquid handler (Labcyte). LPS and IFNγ was prepared in RPMI to a 10× of final conc. (1000 ng/mL), final concentration is 100 ng/mL.
Human whole blood was drawn in sodium heparin coated tubes from healthy internal donors. 240 μL of blood was transferred to each of the wells of a v-bottom 96 well plate. 30 μL of a compound was transferred from intermediate dilution plate, and incubated for 15 min. 30 μL of the LPS and IFNγ solution prepared above was then transferred to a blood sample and mixed thoroughly. Plate was covered with breathable membrane and incubated at 37° C. for overnight (18 h).
On day 2 isotope labeled standard of kynurenine and tryptophan was made in water at 10× concentration and 30 μL was added to the blood sample at 3 μM final concentration. […] 20 μL of supernatant was carefully transferred to a 384 well plate contain 40 μL of 0.1% formic acid in water and analyzed by LC/MS/MS.
LC/MS/MS analyses were performed using Thermo Fisher's LX4-TSQ Quantum Ultra system. […] Compounds were titrated and IC50 values were calculated by 4 parameter sigmoidal curve fitting formula.

In patent US20220396577A1, “NOVEL SUBSTITUTED 1,3-8-TRIAZASPIRO[4,5] DECANE-2,4-DIONE COMPOUNDS AS INDOLEAMINE 2,3-DIOXYGENASE (IDO) AND/OR TRYPTOPHAN 2,3-DIOXYGENASE (TDO) INHIBITORS” (Merck Sharp & Dohme LLC, priority 2019, published 2022) one finds IC50 data, which are given here for two compounds.

LRRK2 (G2019S), sequence (Q5S007 whole entry G2019S): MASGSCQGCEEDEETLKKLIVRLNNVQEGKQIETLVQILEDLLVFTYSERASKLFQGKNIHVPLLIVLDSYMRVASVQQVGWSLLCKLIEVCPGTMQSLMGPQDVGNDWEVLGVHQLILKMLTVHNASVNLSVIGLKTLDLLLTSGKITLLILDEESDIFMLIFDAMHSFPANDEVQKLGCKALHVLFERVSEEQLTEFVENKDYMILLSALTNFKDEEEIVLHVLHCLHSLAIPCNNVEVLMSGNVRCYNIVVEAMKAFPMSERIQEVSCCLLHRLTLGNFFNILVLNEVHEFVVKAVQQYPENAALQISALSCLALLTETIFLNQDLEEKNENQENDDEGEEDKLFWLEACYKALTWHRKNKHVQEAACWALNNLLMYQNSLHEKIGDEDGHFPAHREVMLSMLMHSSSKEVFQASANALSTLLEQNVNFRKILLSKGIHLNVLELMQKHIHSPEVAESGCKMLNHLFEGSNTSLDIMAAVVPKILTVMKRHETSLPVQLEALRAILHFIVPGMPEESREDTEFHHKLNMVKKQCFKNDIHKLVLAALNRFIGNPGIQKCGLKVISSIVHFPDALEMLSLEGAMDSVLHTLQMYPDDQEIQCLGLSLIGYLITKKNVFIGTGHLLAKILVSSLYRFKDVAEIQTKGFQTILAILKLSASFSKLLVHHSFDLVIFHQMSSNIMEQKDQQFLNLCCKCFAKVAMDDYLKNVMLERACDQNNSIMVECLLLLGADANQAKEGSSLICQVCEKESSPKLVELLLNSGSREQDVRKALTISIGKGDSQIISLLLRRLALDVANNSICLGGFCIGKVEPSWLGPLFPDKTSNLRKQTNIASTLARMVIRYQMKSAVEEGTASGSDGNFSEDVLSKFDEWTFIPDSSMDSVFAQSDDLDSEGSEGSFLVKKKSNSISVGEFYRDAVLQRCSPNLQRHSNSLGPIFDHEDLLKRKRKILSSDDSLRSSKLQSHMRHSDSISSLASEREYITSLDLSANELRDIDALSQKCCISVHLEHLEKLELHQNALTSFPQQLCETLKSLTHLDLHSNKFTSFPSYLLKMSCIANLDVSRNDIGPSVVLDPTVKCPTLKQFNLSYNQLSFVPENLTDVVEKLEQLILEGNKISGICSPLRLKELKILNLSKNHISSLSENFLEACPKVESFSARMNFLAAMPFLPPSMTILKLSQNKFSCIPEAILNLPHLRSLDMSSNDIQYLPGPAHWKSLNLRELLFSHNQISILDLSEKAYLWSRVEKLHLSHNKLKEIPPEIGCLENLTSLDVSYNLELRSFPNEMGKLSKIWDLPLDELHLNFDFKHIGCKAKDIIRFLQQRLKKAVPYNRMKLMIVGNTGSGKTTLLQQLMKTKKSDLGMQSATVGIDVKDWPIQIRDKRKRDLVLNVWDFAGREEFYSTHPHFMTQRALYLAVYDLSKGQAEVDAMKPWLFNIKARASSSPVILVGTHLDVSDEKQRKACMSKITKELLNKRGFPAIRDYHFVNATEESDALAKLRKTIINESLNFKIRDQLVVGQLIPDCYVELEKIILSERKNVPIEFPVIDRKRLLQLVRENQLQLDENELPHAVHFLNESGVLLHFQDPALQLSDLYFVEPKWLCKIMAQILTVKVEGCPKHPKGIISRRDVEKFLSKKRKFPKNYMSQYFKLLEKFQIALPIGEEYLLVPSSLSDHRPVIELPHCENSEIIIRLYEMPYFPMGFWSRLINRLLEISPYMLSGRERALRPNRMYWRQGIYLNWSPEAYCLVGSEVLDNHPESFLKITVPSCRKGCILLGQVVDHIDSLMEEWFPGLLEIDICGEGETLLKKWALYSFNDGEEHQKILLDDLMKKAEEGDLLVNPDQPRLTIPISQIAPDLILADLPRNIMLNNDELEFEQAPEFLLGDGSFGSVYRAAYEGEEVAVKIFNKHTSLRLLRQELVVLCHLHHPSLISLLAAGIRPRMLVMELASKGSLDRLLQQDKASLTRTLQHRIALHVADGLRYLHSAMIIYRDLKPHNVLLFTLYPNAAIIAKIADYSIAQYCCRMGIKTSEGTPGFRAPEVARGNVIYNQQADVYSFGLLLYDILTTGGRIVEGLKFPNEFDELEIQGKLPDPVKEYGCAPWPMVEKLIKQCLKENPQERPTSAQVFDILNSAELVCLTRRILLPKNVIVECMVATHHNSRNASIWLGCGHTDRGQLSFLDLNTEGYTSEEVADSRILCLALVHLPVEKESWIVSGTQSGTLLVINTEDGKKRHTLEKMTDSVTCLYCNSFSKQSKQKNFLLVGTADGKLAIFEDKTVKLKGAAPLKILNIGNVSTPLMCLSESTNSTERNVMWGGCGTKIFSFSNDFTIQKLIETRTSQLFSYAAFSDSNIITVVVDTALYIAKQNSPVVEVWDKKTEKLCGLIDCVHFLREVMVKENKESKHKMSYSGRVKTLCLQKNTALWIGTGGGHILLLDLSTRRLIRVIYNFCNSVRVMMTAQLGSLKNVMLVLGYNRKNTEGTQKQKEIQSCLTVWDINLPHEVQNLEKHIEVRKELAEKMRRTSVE
IDO1, sequence (P14902 whole entry): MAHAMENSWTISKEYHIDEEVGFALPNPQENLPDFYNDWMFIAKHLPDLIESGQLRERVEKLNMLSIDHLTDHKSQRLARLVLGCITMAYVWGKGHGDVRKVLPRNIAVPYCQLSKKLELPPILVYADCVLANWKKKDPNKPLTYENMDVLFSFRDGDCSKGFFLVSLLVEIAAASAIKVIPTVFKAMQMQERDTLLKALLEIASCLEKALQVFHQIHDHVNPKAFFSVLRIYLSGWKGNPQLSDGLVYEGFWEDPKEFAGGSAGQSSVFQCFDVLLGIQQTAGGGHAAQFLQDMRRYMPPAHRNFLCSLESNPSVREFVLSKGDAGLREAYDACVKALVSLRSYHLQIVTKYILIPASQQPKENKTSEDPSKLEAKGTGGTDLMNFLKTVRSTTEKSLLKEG

For `O=C1NC(=O)C2(CCN(c3cc(Cl)cc4[nH]ncc34)CC2)N1` [CC-1], the half-maximal inhibitory concentration (IC50) (in general, the concentration that gives 50% inhibition) was 0.94 µM at LRRK2 (G2019S) and 556 nM at IDO1.

For the compound `C[C@@H]1CN(c2cc(Br)cc3[nH]ncc23)CC[C@]12NC(=O)NC2=O` (single isomer, unassigned) [Compound 1-1], the half-inhibitory concentration (IC50) is above 2 µM at LRRK2 (G2019S) and 345 nM on IDO1.
